Assay results published in patent publication US20250163119A1, “COMPOUNDS FOR THE TREATMENT OF DIABETES OR OBESITY” (Eli Lilly and Company, priority 2023, published 2025).
Where “and” joins values, the source holds several entries; their conditions need not be identical. Equal values may be shown once. *1 amine or outer side, *2 acyl side, *3 side chain or, on linkers, in order; H or OH if unused. Side-chain parts run from the residue outwards. [ ]: non-standard residue; d: D form. The star is where a group is joined. C20 diacid = O=C(O)CCCCCCCCCCCCCCCCCCC(=O)*; γGlu = O=C(O)[C@H](CCC(=O)[*:2])N[*:1]; εLys = N[C@@H](CCCCN[*:1])C(=O)[*:2]; pGlu = O=C1CC[C@@H](C(=O)O)N1; αMeL = CC(C)C[C@](C)(N)C(=O)O; AEEA = NCCOCCOCC(=O)O; Aib = CC(C)(N)C(=O)O

Columns and labels:
[1] = Pharmacokinetics in Sprague Dawley rats, single subcutaneous or intravenous dose (incl. 10, 30, 100 nmol/kg dose response); type: in vivo
[2] = Pharmacokinetics in Yucatan mini-pigs, single subcutaneous or intravenous dose; type: in vivo
Description: Plasma concentrations of compounds were determined by LC/MS methods. For each assay, the compound and an internal standard (IS), were extracted from 100% mouse, rat, pig, or monkey plasma (70 μL) using Isopropanol-Methanol. Two distinct layers were formed upon centrifugation with the compound and the IS located in the supernatant layer. An aliquot of the supernatant (150 μL) was transferred to a Waters Sirocco Protein Precipitation Plate. The supernatant was eluted using a positive pressure manifold. The supernatant was mixed with 100-2 Water-Formic acid (400 μL) in a pretreated Sep-Pak tC18 SPE plate and eluted to waste. The peptide and IS were eluted with Acetonitrile-Formic acid (100 μL) in 2 steps (50 μL each step). The elution (40 μL) from SPE plate was mixed with diluent solution (1.875 μL 5× invitrosol and 3.125 μL 1% formic acid in water, 80 μL). A final sample (10 μl) was loaded onto a Xselect CSH C18 IS column (3.5 μm 2.1×20 mm). The column effluent was directed into a Thermo Fisher Scientific Orbitrap (Exploris 240) mass spectrometer for detection and quantitation.
Male Yucatan mini-pigs were administered a single subcutaneous dose or intravenous dose (19 or 99 nmol/kg) of compound in 40 mM Tris-HCl 5% D-mannitol (pH 8) at a volume of 0.01 or 0.05 mL/kg. Blood was collected from each animal at 0.083 (IV only), 0.5, 3, 6, 24, 48, 72, 96, 168, 240, 336, 408, and 504 hours postdose for pharmacokinetic characterization.

[3] = test system: MHC-II presented peptides on human dendritic cells; assay: MAPPS assay (MHC-Associated Peptide Proteomics); type: cell-based
Method in brief: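 Peptides eluted from anti-MHC-II immunoprecipitates of day-6 DC lysates were sequenced by MS, mapped onto the parent test molecule, and scored as percentage of donors presenting each region. DCs derived from donor CD14+ cells (IL-4, GM-CSF) received test molecules on day 4, then LPS maturation on day 5.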

[4] = dose response, single subcutaneous dose 10 nmol/kg, male Sprague Dawley rats, individual animal
[5] = dose response, single subcutaneous dose 30 nmol/kg, male Sprague Dawley rats, individual animal
[6] = dose response, single subcutaneous dose 100 nmol/kg, male Sprague Dawley rats, individual animal
[7] = male Sprague Dawley rats, single intravenous dose 183 nmol/kg, individual animal
[8] = male, Sprague Dawley, rat, plasma, iv, 183 nmol/kg, single intravenous dose 183 nmol/kg, Mean
[9] = male, Sprague Dawley, rat, plasma, iv, 183 nmol/kg, single intravenous dose 183 nmol/kg, individual animal
[10] = single subcutaneous dose 183 nmol/kg, male Sprague Dawley rats, individual animal
[11] = male Yucatan pigs, single subcutaneous dose 18 nmol/kg, individual animal
[12] = male, Yucatan mini-pig, minipig, plasma, iv, 18 nmol/kg, single intravenous dose 18 nmol/kg, individual animal
[13] = male, Yucatan mini-pig, minipig, plasma, iv, 18 nmol/kg, single intravenous dose 18 nmol/kg, mean
[14] = single intravenous dose 18 nmol/kg, male Yucatan pigs, individual animal

CL/F [1, 4]: 3.60 mL/h/kg and 3.54 mL/h/kg
T1/2 [1, 4]: 23.1 h and 41.5 h
CL/F [1, 5]: 3.62 mL/h/kg and 4.25 mL/h/kg
T1/2 [1, 5]: 33.6 h and 24.1 h
CL/F [1, 6]: 3.91 mL/h/kg
T1/2 [1, 6]: 25.9 h and 30.7 h
CL [1, 7]: 2.30 mL/h/kg and 1.98 mL/h/kg
T1/2 [1, 7]: 21.3 h and 22.9 h
clearance [1, 8]: 2.12 mL/h/kg
half-life [1, 8]: 23 h
clearance [1, 9]: 2.07 mL/h/kg
half-life [1, 9]: 24.7 h
half-life ([1]; male, Sprague Dawley, rat, plasma, sc, 10 nmol/kg, dose response, single subcutaneous dose 10 nmol/kg, individual animal): 30.4 h
CL/F ([1]; male, Sprague Dawley, rat, plasma, sc, 10 nmol/kg, dose response, single subcutaneous dose 10 nmol/kg, individual animal, read-out: CL/F (converted)): 3.75 mL/h/kg
Tmax ([1]; male, Sprague Dawley, rat, plasma, sc, 10 nmol/kg, dose response, single subcutaneous dose 10 nmol/kg, individual animal, read-out: Tmax): 24 h
half-life ([1]; male, Sprague Dawley, rat, plasma, sc, 10 nmol/kg, dose response, single subcutaneous dose 10 nmol/kg, mean): 31.7 h
CL/F ([1]; male, Sprague Dawley, rat, plasma, sc, 10 nmol/kg, dose response, single subcutaneous dose 10 nmol/kg, mean, read-out: CL/F (converted)): 3.63 mL/h/kg
Tmax ([1]; male, Sprague Dawley, rat, plasma, sc, 10 nmol/kg, dose response, single subcutaneous dose 10 nmol/kg, mean, read-out: Tmax): 24 h
half-life ([1]; male, Sprague Dawley, rat, plasma, sc, 30 nmol/kg, dose response, single subcutaneous dose 30 nmol/kg, individual animal): 27.4 h
CL/F ([1]; male, Sprague Dawley, rat, plasma, sc, 30 nmol/kg, dose response, single subcutaneous dose 30 nmol/kg, individual animal, read-out: CL/F (converted)): 4.07 mL/h/kg
Tmax ([1]; male, Sprague Dawley, rat, plasma, sc, 30 nmol/kg, dose response, single subcutaneous dose 30 nmol/kg, individual animal, read-out: Tmax): 24 h
half-life ([1]; male, Sprague Dawley, rat, plasma, sc, 30 nmol/kg, dose response, single subcutaneous dose 30 nmol/kg, mean): 28.4 h
CL/F ([1]; male, Sprague Dawley, rat, plasma, sc, 30 nmol/kg, dose response, single subcutaneous dose 30 nmol/kg, mean, read-out: CL/F (converted)): 3.98 mL/h/kg
Tmax ([1]; male, Sprague Dawley, rat, plasma, sc, 30 nmol/kg, dose response, single subcutaneous dose 30 nmol/kg, mean, read-out: Tmax): 24 h
half-life ([1]; male, Sprague Dawley, rat, plasma, sc, 100 nmol/kg, dose response, single subcutaneous dose 100 nmol/kg, individual animal): 28.6 h
CL/F ([1]; male, Sprague Dawley, rat, plasma, sc, 100 nmol/kg, dose response, single subcutaneous dose 100 nmol/kg, individual animal, read-out: CL/F (converted)): 3.85 mL/h/kg
Tmax ([1]; male, Sprague Dawley, rat, plasma, sc, 100 nmol/kg, dose response, single subcutaneous dose 100 nmol/kg, individual animal, read-out: Tmax): 24 h
half-life ([1]; male, Sprague Dawley, rat, plasma, sc, 100 nmol/kg, dose response, single subcutaneous dose 100 nmol/kg, mean): 28.4 h
CL/F ([1]; male, Sprague Dawley, rat, plasma, sc, 100 nmol/kg, dose response, single subcutaneous dose 100 nmol/kg, mean, read-out: CL/F (converted)): 3.89 mL/h/kg
Tmax ([1]; male, Sprague Dawley, rat, plasma, sc, 100 nmol/kg, dose response, single subcutaneous dose 100 nmol/kg, mean, read-out: Tmax): 24 h
half-life ([1]; male, Sprague Dawley, rat, plasma, sc, 183 nmol/kg, single subcutaneous dose 183 nmol/kg, individual animal): 26.2 h
CL/F ([1]; male, Sprague Dawley, rat, plasma, sc, 183 nmol/kg, single subcutaneous dose 183 nmol/kg, individual animal, read-out: CL/F (converted)): 4.75 mL/h/kg
Tmax ([1]; male, Sprague Dawley, rat, plasma, sc, 183 nmol/kg, single subcutaneous dose 183 nmol/kg, individual animal, read-out: Tmax): 24 h
half-life ([1]; male, Sprague Dawley, rat, plasma, sc, 183 nmol/kg, single subcutaneous dose 183 nmol/kg, mean): 23.8 h
CL/F ([1]; male, Sprague Dawley, rat, plasma, sc, 183 nmol/kg, single subcutaneous dose 183 nmol/kg, mean, read-out: CL/F (converted)): 5.04 mL/h/kg
Tmax ([1]; male, Sprague Dawley, rat, plasma, sc, 183 nmol/kg, single subcutaneous dose 183 nmol/kg, mean, read-out: Tmax): 32 h
AUC0-inf ([1]; rat, plasma, sc, dose response, single subcutaneous dose 10 nmol/kg, male Sprague Dawley rats, mean, read-out: AUC0-inf): 2.85 µM·h
Cmax ([1]; rat, plasma, sc, dose response, single subcutaneous dose 10 nmol/kg, male Sprague Dawley rats, mean, read-out: Cmax): 49.8 nM
AUC0-inf ([1]; rat, plasma, sc, dose response, single subcutaneous dose 30 nmol/kg, male Sprague Dawley rats, mean, read-out: AUC0-inf): 7.76 µM·h
Cmax ([1]; rat, plasma, sc, dose response, single subcutaneous dose 30 nmol/kg, male Sprague Dawley rats, mean, read-out: Cmax): 129 nM
AUC0-inf ([1]; rat, plasma, sc, dose response, single subcutaneous dose 100 nmol/kg, male Sprague Dawley rats, mean, read-out: AUC0-inf): 26.3 µM·h
Cmax ([1]; rat, plasma, sc, dose response, single subcutaneous dose 100 nmol/kg, male Sprague Dawley rats, mean, read-out: Cmax): 386 nM
AUC0-inf ([1]; rat, plasma, sc, single subcutaneous dose 183 nmol/kg, male Sprague Dawley rats, mean, read-out: AUC0-inf): 36.8 µM·h
Cmax ([1]; rat, plasma, sc, single subcutaneous dose 183 nmol/kg, male Sprague Dawley rats, mean, read-out: Cmax): 583 nM
AUC0-inf ([1]; rat, plasma, male Sprague Dawley rats, single intravenous dose 183 nmol/kg, Mean, read-out: AUC0-inf): 86.8 µM·h
C0 ([1]; rat, plasma, male Sprague Dawley rats, single intravenous dose 183 nmol/kg, Mean, read-out: C0): 4610 nM
CL/F [1, 10]: 5.39 mL/h/kg and 4.99 mL/h/kg
T1/2 [1, 10]: 21.8 h and 23.5 h
Tmax [1, 10]: 48 h
AUC0-inf ([2]; Yucatan mini-pig, minipig, plasma, sc, male Yucatan pigs, single subcutaneous dose 18 nmol/kg, Mean, read-out: AUC0-inf): 22.5 µM·h
Cmax ([2]; Yucatan mini-pig, minipig, plasma, sc, male Yucatan pigs, single subcutaneous dose 18 nmol/kg, Mean, read-out: Cmax): 154 nM
AUC0-inf [2, 11]: 23.9 µM·h and 21 µM·h
CL/F [2, 11]: 0.886 mL/h/kg
Cmax [2, 11]: 165 nM and 143 nM
T1/2 [2, 11]: 85.8 h
Tmax [2, 11]: 6.0 h
clearance [2, 12]: 0.82 mL/h/kg
half-life [2, 12]: 90.1 h
clearance [2, 13]: 0.733 mL/h/kg
half-life [2, 13]: 95.6 h
half-life ([2]; male, Yucatan mini-pig, minipig, plasma, sc, 18 nmol/kg, single subcutaneous dose 18 nmol/kg, Mean): 82.5 h
CL/F ([2]; male, Yucatan mini-pig, minipig, plasma, sc, 18 nmol/kg, single subcutaneous dose 18 nmol/kg, Mean, read-out: CL/F (converted)): 0.832 mL/h/kg
Tmax ([2]; male, Yucatan mini-pig, minipig, plasma, sc, 18 nmol/kg, single subcutaneous dose 18 nmol/kg, Mean, read-out: Tmax): 15 h
half-life ([2]; male, Yucatan mini-pig, minipig, plasma, sc, 18 nmol/kg, single subcutaneous dose 18 nmol/kg, individual animal): 79.1 h
CL/F ([2]; male, Yucatan mini-pig, minipig, plasma, sc, 18 nmol/kg, single subcutaneous dose 18 nmol/kg, individual animal, read-out: CL/F (converted)): 0.777 mL/h/kg
AUC0-inf ([2]; minipig, plasma, single intravenous dose 18 nmol/kg, male Yucatan pigs, mean, read-out: AUC0-inf): 25.3 µM·h
C0 ([2]; minipig, plasma, single intravenous dose 18 nmol/kg, male Yucatan pigs, mean, read-out: C0): 418 nM
AUC0-inf [2, 14]: 22.3 µM·h and 28.3 µM·h
C0 [2, 14]: 373 nM and 462 nM
CL [2, 14]: 0.646 mL/h/kg
T1/2 [2, 14]: 101 h
MAPPS Assay >10 donors with diverse MHC ([3]; donors displaying MHC-II peptides / donors tested): 1/10
MAPPS Assay >10 donors with diverse MHC ([3]; percentage of donors displaying MHC-II peptides): 10%
Substance: [pGlu]GSPSGIVTS[αMeL]DVPT[Aib][αMeL]LQKILEQERAEKARQQAK([γGlu-AEEA-εLys-C20 diacid])EAAEILAQV-NH2 [SEQ ID NO: 22, Pyr-GSPSGIVTS αMeL DVPT Aib αMeL LQKILEQERAEKARQQAK(γE-(2-[2-(2-Amino-ethoxy)-ethoxy]-acetyl)-ϵK-CO-(CH2)18-CO2H)EAAEILAQV-NH2]
AUC0-inf [1, 4]: 2.73 µM·h and 2.81 µM·h and 3.02 µM·h
Cmax [1, 4]: 49.5 nM and 51.3 nM and 48.6 nM
AUC0-inf [1, 5]: 7.52 µM·h and 8.6 µM·h and 7.16 µM·h
Cmax [1, 5]: 126 nM and 132 nM and 128 nM
AUC0-inf [1, 6]: 26.7 µM·h and 26 µM·h and 26.3 µM·h
Cmax [1, 6]: 372 nM and 416 nM and 369 nM
AUC0-inf [1, 7]: 88.4 µM·h and 79.6 µM·h and 92.3 µM·h
C0 [1, 7]: 3240 nM and 5390 nM and 5200 nM
AUC0-inf [1, 10]: 38.9 µM·h and 34.3 µM·h and 37.1 µM·h
Cmax [1, 10]: 783 nM and 439 nM and 527 nM
peptides displayed on MHC-II complexes ([3]; human dendritic cells from normal donors): at least one peptide cluster on MHC-II complexes in a subset of donors
immunogenicity compared with SEQ ID NO:54 ([3]; in the MAPPs assay and/or the T cell proliferation assay): substantial improvements in immunogenicity over a compound comprising SEQ ID NO:54
